Experimental data taken from patent US20230190769A1, “E PROTEIN CHANNEL BLOCKERS AND ORF3 INHIBITORS AS ANTI-COVID-19 AGENTS” (priority 2020, published 2023).
Where two headings read alike, the source gives them in different places.

Columns and labels:
Assay type in all cases: cell-based
SARS-CoV-2 E protein [1] = molecular target: T1, SARS-CoV-2 E protein (Severe acute respiratory syndrome coronavirus 2, UniProt P0DTC4)
SARS-CoV-2 E protein [2] = molecular target: T1, SARS-CoV-2 E protein; remark: listed apart in the source
SARS-CoV-2 E protein [3] = molecular target: T1, SARS-CoV-2 E protein; remark: listed apart in the source
SARS-CoV-2 3a protein = SARS-CoV-2 3a protein (Severe acute respiratory syndrome coronavirus 2, UniProt P0DTC3)
SARS-CoV-2 = settings: for protection, effect on cell survival (FIG. 24 legend): individual 3a protein inhibitor at a concentration of 3 μM; for cell survival (in words): sole compound at 3, FIG. 24; for effectiveness of compounds on their own: sole compounds, protection of cells against viral death
[4] = 3000 molecules screened against E protein
[5] = 3,000 molecules screened against 3a protein

T1 sequence (P0DTC4 whole entry, looked up): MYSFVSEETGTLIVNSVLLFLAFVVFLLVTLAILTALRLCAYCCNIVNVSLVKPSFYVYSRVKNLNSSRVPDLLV
Chain of SARS-CoV-2 3a protein (P0DTC3 whole entry, looked up): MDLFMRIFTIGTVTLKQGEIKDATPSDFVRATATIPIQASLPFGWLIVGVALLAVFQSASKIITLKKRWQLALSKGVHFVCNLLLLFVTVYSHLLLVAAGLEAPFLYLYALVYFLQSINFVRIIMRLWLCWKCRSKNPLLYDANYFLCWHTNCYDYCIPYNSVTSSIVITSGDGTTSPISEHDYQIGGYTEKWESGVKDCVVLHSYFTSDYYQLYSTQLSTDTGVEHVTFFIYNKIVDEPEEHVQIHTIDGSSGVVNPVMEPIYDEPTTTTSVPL

Molecule | outcome of screen: SARS-CoV-2 E protein channel blocker (SARS-CoV-2 E protein [1]; [4]) | outcome of screen: SARS-CoV-2 3a protein inhibitor (SARS-CoV-2 3a protein; [5]) | further results
CC12CC3CC(C)(C1)CC(N)(C3)C2 [Memantine, 1-amino-3,5-dimethyladamantane] | can be used as SARS-CoV-2 E protein channel blocker |  | bacterial growth in positive assay (SARS-CoV-2 E protein [2]): inhibited growth; bacterial growth in negative assay (SARS-CoV-2 E protein [3]): enhance bacterial growth
Capreomycin |  | can be used as SARS-CoV-2 3a protein inhibitor | 
CCN(CC)CCN(Cc1ccc(-c2ccc(C(F)(F)F)cc2)cc1)C(=O)Cn1c(SCc2ccc(F)cc2)nc(=O)c2c1CCC2 [Darapladib, N-(2-Diethylaminoethyl)-2-[2-[(4-fluorophenyl)methylsulfanyl]-4-oxo-6,7-dihydro-5H-cyclopenta[d]pyrimidin-1-yl]-N-[[4-[4-(trifluoromethyl)phenyl]phenyl]methyl]acetamide] |  | can be used as SARS-CoV-2 3a protein inhibitor | protection, effect on cell survival (FIG. 24 legend) (SARS-CoV-2): near full protection; cell survival (in words) (SARS-CoV-2): full survival; effectiveness of compounds on their own (SARS-CoV-2): most effective
Cc1ccc(S(=O)(=O)NC(=O)NN2CC3CCCC3C2)cc1 (stereo not shown) [Gliclazide, 1-(3-azabicyclo(3.3.0)oct-3-yl)-3-(p-tolylsulfonyl)urea] | can be used as SARS-CoV-2 E protein channel blocker |  | bacterial growth in positive assay (SARS-CoV-2 E protein [2]): inhibited growth; bacterial growth in negative assay (SARS-CoV-2 E protein [3]): enhance bacterial growth
NCCCCN(Cc1nc2ccccc2[nH]1)[C@H]1CCCc2cccnc21 [Mavorixafor, N-(1H-benzimidazol-2-ylmethyl)-N-[(8S)-5,6,7,8-tetrahydroquinolin-8-yl]butane-1,4-diamine] | can be used as SARS-CoV-2 E protein channel blocker |  | 
CN[C@@H]1[C@H](O)[C@H](NC)[C@H]2O[C@@]3(O)C(=O)C[C@@H](C)O[C@H]3O[C@@H]2[C@H]1O [Spectinomycin] |  | can be used as SARS-CoV-2 3a protein inhibitor | 
CCO[C@@H](Cc1ccc(OCCn2c(C)ccc2-c2ccc(SC)cc2)cc1)C(=O)O [Saroglitazar Magnesium, (αS)-α-Ethoxy-4-[2-[2-methyl-5-[4-(methylthio)phenyl]-1H-pyrrol-1-yl]ethoxy]benzenepropanoic Acid] | can be used as SARS-CoV-2 E protein channel blocker |  | 
C1CNCCNCCNCCN1 [Cyclen, 1,4,7,10-Tetraazacyclododecane] | can be used as SARS-CoV-2 E protein channel blocker |  | 
C[C@H]1O[C@H](OC2[C@@H](O)[C@@H](O)C(O)[C@H](O)[C@H]2O)[C@@H](N)C[C@@H]1N=C(N)C(=O)O (stereo partly drawn) [Kasugamycin, 2-amino-2-[(2R,3 S,5 S,6R)-5-amino-2-methyl-6-[(2R,3 S,5S,6S)-2,3,4,5,6-pentahydroxycyclohexyl]oxyoxan-3-yl]iminoacetic acid] | can be used as SARS-CoV-2 E protein channel blocker | can be used as SARS-CoV-2 3a protein inhibitor | 
O=c1[nH]c(=O)n(C2CC(O)C(CO)O2)cc1F (stereo not shown) [Floxuridine, 5-Fluoro-1-[4-hydroxy-5-(hydroxymethyl)tetrahydrofuran-2-yl]-1H-pyrimidine-2,4-dione] |  | can be used as SARS-CoV-2 3a protein inhibitor | 
c1cc(CN2CCCNCCNCCCNCC2)ccc1CN1CCCNCCNCCCNCC1 [Plerixafor, 1-[[4-(1,4,8,11-tetrazacyclotetradec-1-ylmethyl)phenyl]methyl]-1,4,8,11-tetrazacyclotetradecane] |  |  | outcome of screen: SARS-CoV-2 E protein channel blocker (SARS-CoV-2 E protein [1]): can be used as SARS-CoV-2 E protein channel blocker; outcome of screen: SARS-CoV-2 3a protein inhibitor (SARS-CoV-2 3a protein): can be used as SARS-CoV-2 3a protein inhibitor
Nc1ncn([C@@H]2O[C@H](CO)[C@@H](O)[C@H]2O)c(=O)n1 [Azacytidine, 4-Amino-1-β-D-ribofuranosyl-s-triazin-2(1H)-one] | can be used as SARS-CoV-2 E protein channel blocker |  | 
N=C(N)c1ccc(OCCCCCOc2ccc(C(=N)N)cc2)cc1 [Pentamidine, 4,4′-[pentane-1,5-diylbis(oxy)]dibenzenecarboximidamide] |  | can be used as SARS-CoV-2 3a protein inhibitor | 
CCNCCS(=O)(=O)NC[C@@]1(c2ccccc2)SC(NC(=O)C(C)(C)C)=NN1C(=O)C(C)(C)C [Litronesib, N-[(5R)-4-(2,2-dimethylpropanoyl)-5-[[2-(ethylamino)ethylsulfonylamino]methyl]-5-phenyl-1,3,4-thiadiazol-2-yl]-2,2-dimethylpropanamide] |  | can be used as SARS-CoV-2 3a protein inhibitor | 
Cc1cc(C)c(NC(=O)CN(CC(=O)O)CC(=O)O)c(C)c1Br [Mebrofenin, 2-[[2-(3-bromo-2,4,6-trimethylanilino)-2-oxoethyl]-(carboxymethyl)amino]acetic acid] | can be used as SARS-CoV-2 E protein channel blocker |  | 
Cc1ncc(NC(=O)c2ccc(CN3CCN(C)CC3)c(C(F)(F)F)c2)cc1Nc1nccc(-c2cccnc2)n1 [Flumatinib, 4-[(4-methylpiperazin-1-yl)methyl]-N-[6-methyl-5-[(4-pyridin-3-ylpyrimidin-2-yl)amino]pyridin-3-yl]-3-(trifluoromethyl)benzamide] |  | can be used as SARS-CoV-2 3a protein inhibitor | protection, effect on cell survival (FIG. 24 legend) (SARS-CoV-2): near full protection; cell survival (in words) (SARS-CoV-2): near full survival; effectiveness of compounds on their own (SARS-CoV-2): most effective
